Reference: BindingDB's records for doi:10.1111/j.1747-0285.2010.01036.x (Ataturk University, 2010)

biological target: Serum paraoxonase/arylesterase 1 (Homo sapiens, UniProt P27169); experiment: In Vitro Inhibtion Assay
Experimental: The inhibitory effects of six sulfonamide derivatives was examined against the purified enzyme hPON1 and were tested in a triplicate experiment in five different concentrations (0.15, 0.3, 0.45, 0.6, and 0.75 mM).

Serum paraoxonase/arylesterase 1, sequence (P27169 whole entry): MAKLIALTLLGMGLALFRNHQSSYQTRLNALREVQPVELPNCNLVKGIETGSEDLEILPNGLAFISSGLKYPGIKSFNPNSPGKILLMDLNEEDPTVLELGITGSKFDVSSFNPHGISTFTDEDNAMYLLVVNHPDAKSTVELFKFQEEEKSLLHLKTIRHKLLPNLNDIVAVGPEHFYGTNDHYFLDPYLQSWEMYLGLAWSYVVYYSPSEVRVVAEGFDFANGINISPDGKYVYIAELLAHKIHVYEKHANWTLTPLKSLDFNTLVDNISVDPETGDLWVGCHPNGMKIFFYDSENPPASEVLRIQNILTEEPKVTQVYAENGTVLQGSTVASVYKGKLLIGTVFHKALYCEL

**Q.** Which IC50 does the source give for `Nc1nnc(S(N)(=O)=O)s1` [1,3,4-thiadiazole-2-sulfonamide 15] here?
**A.** The IC50 was 1240 µM.

**Q.** What about the Ki of the same compound?
**A.** Its Ki is 2010 µM.

**Q.** Which results are given for `NS(=O)(=O)c1cc(C(=O)O)c(NCc2ccco2)cc1Cl` [4-chloro-2-[(furan-2-ylmethyl)amino]-5-sulfamoylbenzoic acid]?
**A.** IC50: 360 µM; Ki: 702 µM

**Q.** Which IC50 does the source give for `CC(=O)Nc1nnc(S(N)(=O)=O)s1` [Acetazolamide, AAZ] here?
**A.** The IC50 was 800 µM.

**Q.** What about the Ki of the same compound?
**A.** The Ki was 743 µM.

**Q.** Which IC50 does the source give for `CC(=O)NS(=O)(=O)c1ccc(N)cc1` [Cetamide] here?
**A.** Its IC50 is 180 µM.

**Q.** What about the Ki of the same compound?
**A.** The Ki was 86 µM.

**Q.** How did the IC50 turn out when `NCc1ccc(S(N)(=O)=O)cc1` [aromatic sulfonamide compound 6] was run?
**A.** Its IC50 is 190 µM.

**Q.** And the Ki?
**A.** Its Ki is 340 µM.
